From ChEMBL document CHEMBL5614455, “Novel Azepino[4,5-b]indolone as cGAS Inhibitors for Treating Immune-Mediated Diseases” (ACS Med Chem Lett, 2024)

The compounds below were run against Cyclic GMP-AMP synthase (Homo sapiens, UniProt Q8N884) (assay: Inhibition of full length his-tagged human recombinant cGAS extracted from Escherichia coli BL21 (DE3) incubated for 3 hrs by rapidfire 365 mass spectrometry analysis).
Chain of Cyclic GMP-AMP synthase (Q8N884 whole entry): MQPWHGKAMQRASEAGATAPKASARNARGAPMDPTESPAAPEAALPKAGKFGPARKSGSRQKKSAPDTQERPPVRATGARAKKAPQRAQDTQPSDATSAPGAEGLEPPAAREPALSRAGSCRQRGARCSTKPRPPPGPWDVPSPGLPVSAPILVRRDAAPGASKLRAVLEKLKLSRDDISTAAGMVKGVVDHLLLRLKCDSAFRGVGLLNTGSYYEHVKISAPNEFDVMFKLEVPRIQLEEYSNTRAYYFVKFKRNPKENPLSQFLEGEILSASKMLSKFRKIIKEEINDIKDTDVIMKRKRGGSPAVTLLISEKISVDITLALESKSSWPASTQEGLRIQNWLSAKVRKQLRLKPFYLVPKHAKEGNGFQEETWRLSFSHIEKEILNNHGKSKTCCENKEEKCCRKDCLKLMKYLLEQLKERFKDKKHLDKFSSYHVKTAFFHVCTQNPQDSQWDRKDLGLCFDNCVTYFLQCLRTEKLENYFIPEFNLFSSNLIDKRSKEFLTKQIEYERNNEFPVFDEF

Row | Compound | IC50 [nM]
1 | COCC[C@@H]1CNC(=O)[C@@H](C)c2c1[nH]c1c(Cl)c(Cl)cc(NCCO)c21 | 8
2 | CC(F)(F)C[C@@H]1CNC(=O)Cc2c1[nH]c1c(Cl)c(Cl)cc(CC#N)c21 | 8
3 | C[C@@H]1C(=O)NCCc2[nH]c3c(Cl)c(Cl)cc(OCCCO)c3c21 | 7
4 | Cn1ncc(-c2cc(Cl)c(Cl)c3[nH]c4c(c23)CC(=O)NCC4CC(=O)O)n1 (stereo unspecified) | 5
5 | COCCCOc1cc(Cl)c(Cl)c2[nH]c3c(c12)[C@H](C)C(=O)NCC3 | 8
6 | C[C@@H]1C(=O)NCCc2[nH]c3c(Cl)c(Cl)cc(OCC#N)c3c21 | 2
